Assay results: ChEMBL document CHEMBL1201862, “PubChem BioAssay data set” (2004)
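Cultured in 96-well plates, cells were exposed to test compound for 48 hours across five concentrations. Abbreviation: GI50, concentration required for 50% inhibition of growth.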 Activity calls are given as the source filed them. No stated cut-off is given here; in the data, active = GI50 up to about 1.1 µM and inactive = higher.

Legend:
Experiment in all cases: DTP human tumour cell line panel, 48 h
ACHN = system: ACHN
U-251 = system: U-251
SN12C = system: SN12C
SK-MEL-5 = system: SK-MEL-5
TK-10 = system: TK-10
MOLT-4 = system: MOLT-4
DMS-273 = system: DMS-273
OVCAR-5 = system: OVCAR-5
HOP-62 = system: HOP-62
RXF 631 = system: RXF 631
CCRF-CEM = system: CCRF-CEM
SF-268 = system: SF-268
UO-31 = system: UO-31
KM-20L2 = system: KM-20L2
A498 = system: A498
NCI-H522 = system: NCI-H522
UACC-257 = system: UACC-257
HOP-18 = system: HOP-18
HCC 2998 = system: HCC 2998
SK-MEL-28 = system: SK-MEL-28
IGROV-1 = system: IGROV-1
HCT-15 = system: HCT-15
RPMI-8226 = system: RPMI-8226
786-0 = system: 786-0
NCI-H226 = system: NCI-H226
SF-295 = system: SF-295
UACC-62 = system: UACC-62
NCI-H23 = system: NCI-H23
Malme-3M = system: Malme-3M
LOX IMVI = system: LOX IMVI
HL-60 = system: HL-60
CAKI-1 = system: CAKI-1
SF-539 = system: SF-539
SK-MEL-2 = system: SK-MEL-2
LXFL 529 = system: LXFL 529
OVCAR-3 = system: OVCAR-3
OVCAR-4 = system: OVCAR-4
EKVX = system: EKVX
HOP-92 = system: HOP-92
KM12 = system: KM12
K562 = system: K562
SW-620 = system: SW-620
HT-29 = system: HT-29
M14 = system: M14
OVCAR-8 = system: OVCAR-8
XF498 = system: XF498
COLO 205 = system: COLO 205
SNB-75 = system: SNB-75
SR = system: SR
SNB-19 = system: SNB-19
DLD-1 = system: DLD-1
M19-MEL = system: M19-MEL
A549 = system: A549
SNB-78 = system: SNB-78
RXF 393 = system: RXF 393
NCI/ADR-RES = system: NCI/ADR-RES
MCF7 = system: MCF7
MDA-N = system: MDA-N
BT-549 = system: BT-549
Hs-578T = system: Hs-578T
T47D = system: T47D
DMS-114 = system: DMS-114
MDA-MB-435 = system: MDA-MB-435
PC-3 = system: PC-3
MDA-MB-231 = system: MDA-MB-231
DU-145 = system: DU-145

## Cc1nc2ccccc2nc1NS(=O)(=O)c1ccc(N)cc1
ACHN
  GI50: > 100 µM (inactive)
U-251
  GI50: > 100 µM (inactive)
SN12C
  GI50: > 100 µM (inactive)
SK-MEL-5
  GI50: > 100 µM (inactive)
TK-10
  GI50: > 100 µM (inactive)
MOLT-4
  GI50: > 100 µM (inactive)
DMS-273
  GI50: > 100 µM (inactive)
OVCAR-5
  GI50: > 100 µM (inactive)
HOP-62
  GI50: > 100 µM (inactive)
RXF 631
  GI50: > 100 µM (inactive)
CCRF-CEM
  GI50: > 100 µM (inactive)
SF-268
  GI50: > 100 µM (inactive)
UO-31
  GI50: > 100 µM (inactive)
KM-20L2
  GI50: > 100 µM (inactive)
A498
  GI50: > 100 µM (inactive)
NCI-H522
  GI50: > 100 µM (inactive)
UACC-257
  GI50: > 100 µM (inactive)
HOP-18
  GI50: > 100 µM (inactive)
HCC 2998
  GI50: > 100 µM (inactive)
SK-MEL-28
  GI50: > 100 µM (inactive)
IGROV-1
  GI50: > 100 µM (inactive)
HCT-15
  GI50: > 100 µM
RPMI-8226
  GI50: > 100 µM (inactive)
786-0
  GI50: > 100 µM (inactive)
NCI-H226
  GI50: > 100 µM (inactive)
SF-295
  GI50: > 100 µM (inactive)
UACC-62
  GI50: > 100 µM (inactive)
NCI-H23
  GI50: > 100 µM (inactive)
Malme-3M
  GI50: > 100 µM (inactive)
LOX IMVI
  GI50: > 100 µM (inactive)
HL-60
  GI50: > 100 µM (inactive)
CAKI-1
  GI50: > 100 µM (inactive)
SF-539
  GI50: > 100 µM (inactive)
SK-MEL-2
  GI50: > 100 µM (inactive)
LXFL 529
  GI50: > 100 µM (inactive)
OVCAR-3
  GI50: > 100 µM (inactive)
OVCAR-4
  GI50: > 100 µM (inactive)
EKVX
  GI50: > 100 µM (inactive)
HOP-92
  GI50: > 100 µM (inactive)
KM12
  GI50: > 100 µM (inactive)
K562
  GI50: > 100 µM (inactive)
SW-620
  GI50: > 100 µM (inactive)
HT-29
  GI50: > 100 µM (inactive)
M14
  GI50: > 100 µM (inactive)
OVCAR-8
  GI50: > 100 µM (inactive)
XF498
  GI50: > 100 µM (inactive)
COLO 205
  GI50: > 100 µM (inactive)
SNB-75
  GI50: 50.9 µM (inactive)
SR
  GI50: > 100 µM (inactive)
SNB-19
  GI50: > 100 µM (inactive)
DLD-1
  GI50: > 100 µM (inactive)
M19-MEL
  GI50: > 100 µM (inactive)
A549
  GI50: > 100 µM (inactive)
SNB-78
  GI50: > 100 µM (inactive)
RXF 393
  GI50: > 100 µM (inactive)

## CC(C)=CCC1=C(O)C(=O)c2ccccc2C1=O [LAPACHOL]
SK-MEL-5
  GI50: 11.7 µM (inactive)
NCI/ADR-RES
  GI50: 32.3 µM (inactive)
MCF7
  GI50: 24.4 µM (inactive)
OVCAR-5
  GI50: > 100 µM (inactive)
RXF 631
  GI50: 22.2 µM (inactive)
MDA-N
  GI50: 17.4 µM (inactive)
A498
  GI50: 60.4 µM (inactive)
BT-549
  GI50: 51.8 µM (inactive)
HOP-18
  GI50: 15.2 µM (inactive)
HCC 2998
  GI50: 86.3 µM (inactive)
NCI-H226
  GI50: 53.8 µM (inactive)
Hs-578T
  GI50: 34.8 µM (inactive)
CAKI-1
  GI50: 55 µM (inactive)
T47D
  GI50: 61.4 µM (inactive)
SK-MEL-2
  GI50: 35.5 µM (inactive)
DMS-114
  GI50: 60.3 µM (inactive)
OVCAR-4
  GI50: 33.7 µM (inactive)
MDA-MB-435
  GI50: 18.5 µM (inactive)
PC-3
  GI50: 2.92 µM (inactive)
EKVX
  GI50: 78.7 µM (inactive)
HOP-92
  GI50: 79.6 µM (inactive)
MDA-MB-231
  GI50: 8.53 µM (inactive)
XF498
  GI50: 42.4 µM (inactive)
SNB-75
  GI50: 57.1 µM (inactive)
DU-145
  GI50: 36.9 µM (inactive)
SNB-78
  GI50: > 100 µM (inactive)
